Laboratory results published in US20240000698A1, “COMPOSITION COMPRISING FERMENTED EXTRACT FROM PINE FOR PREVENTING SKIN WRINKLE, IMPROVING SKIN BARRIER FUNCTION, PREVENTING HAIR LOSS, PROMOTING HAIR GROWTH AND IMPROVING HAIR HEALTH AND METHOD FOR MANUFACTURING THE SAME” (TaedamBio Co., Ltd., priority 2022, published 2024).

Test: DPPH free radical scavenging activity measurement test
Assay type: biochemical
Description: The free radical scavenging activity measurement test was conducted using 2,2-diphenyl-1-picrylhydrazyl (DPPH) to evaluate the free radical scavenging activity contained in active oxygen, which is one of the antioxidant effects on the fermented pine tree extract obtained by the above method (testing institution: Korea Testing and Research Institute, test number: TNK-2022-000242). The fermented pine extract was prepared at 5, 10, 20, and 30% concentrations using ethanol, and as a positive control material, L-Ascorbic acid was weighed, and was prepared at concentrations of 0.0005, 0.001, 0.0015, and 0.002% using distilled water. Ethanol was used to prepare DPPH at concentrations of 0.2 mM. 100 μL of the preparations for each concentration were dispensed into a 96-well plate, 0.2 mM DPPH and 100 μL of Ethanol were added, and reacted at room temperature for 30 minutes in a light-shielding state, and then absorbance was measured at 517 nm wavelength. The DPPH free radical scavenging activity (%) was calculated using the following formula. Each experimental result was measured three times to calculate the mean and standard deviation, and the confidence interval was set at 95%. [formula] [formula]

IC50 (concentration representing 50% activity) (DPPH free radical scavenging): 0.0013%
Compound: O=C1O[C@H]([C@@H](O)CO)C(O)=C1O [positive control substance, L-Ascorbic acid]
DPPH free radical scavenging activity (positive control 0.0015% in distilled water): 57.25%
DPPH free radical scavenging activity (positive control 0.002% in distilled water): 77.39%
